# PubChem BioAssay (NCI)
#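 How tested: cells in 96-well plates exposed to compound for 48 hours at five concentrations. TGI is the concentration that stops growth completely.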
# Columns and labels:
# Assay in all cases: inhibition of tumour cell growth, NCI panel, 48 h
# 786-0 renal = test system: 786-0 renal
# A498 renal = test system: A498 renal
# A549 NSCLC = test system: A549 NSCLC
# ACHN renal = test system: ACHN renal
# BT-549 breast = test system: BT-549 breast
# CAKI-1 renal = test system: CAKI-1 renal
# CCRF-CEM leukemia = test system: CCRF-CEM leukemia
# COLO 205 colon = test system: COLO 205 colon
# DU-145 prostate = test system: DU-145 prostate
# EKVX NSCLC = test system: EKVX NSCLC
# HCC-2998 colon = test system: HCC-2998 colon
# HCT-116 colon = test system: HCT-116 colon
# HCT-15 colon = test system: HCT-15 colon
# HL-60(TB) leukemia = test system: HL-60(TB) leukemia
# HOP-62 NSCLC = test system: HOP-62 NSCLC
# HOP-92 NSCLC = test system: HOP-92 NSCLC
# HS 578T breast = test system: HS 578T breast
# HT29 colon = test system: HT29 colon
# IGROV1 ovarian = test system: IGROV1 ovarian
# K-562 leukemia = test system: K-562 leukemia
# KM12 colon = test system: KM12 colon
# LOX IMVI melanoma = test system: LOX IMVI melanoma
# M14 melanoma = test system: M14 melanoma
# MALME-3M melanoma = test system: MALME-3M melanoma
# MCF7 breast = test system: MCF7 breast
# MDA-MB-231 breast = test system: MDA-MB-231 breast
# MDA-MB-435 = test system: MDA-MB-435
# MDA-N = test system: MDA-N
# MOLT-4 leukemia = test system: MOLT-4 leukemia
# NCI-H226 lung = test system: NCI-H226 lung
# NCI-H23 lung = test system: NCI-H23 lung
# NCI-H460 lung = test system: NCI-H460 lung
# NCI-H522 lung = test system: NCI-H522 lung
# NCI/ADR-RES ovarian = test system: NCI/ADR-RES ovarian
# OVCAR-3 ovarian = test system: OVCAR-3 ovarian
# OVCAR-4 ovarian = test system: OVCAR-4 ovarian
# OVCAR-5 ovarian = test system: OVCAR-5 ovarian
# OVCAR-8 ovarian = test system: OVCAR-8 ovarian
# PC-3 prostate = test system: PC-3 prostate
# RPMI-8226 leukemia = test system: RPMI-8226 leukemia
# RXF 393 renal = test system: RXF 393 renal
# SF-268 CNS = test system: SF-268 CNS
# SF-295 CNS = test system: SF-295 CNS
# SF-539 CNS = test system: SF-539 CNS
# SK-MEL-2 melanoma = test system: SK-MEL-2 melanoma
# SK-MEL-28 melanoma = test system: SK-MEL-28 melanoma
# SK-MEL-5 melanoma = test system: SK-MEL-5 melanoma
# SK-OV-3 ovarian = test system: SK-OV-3 ovarian
# SN12C renal = test system: SN12C renal
# SNB-19 CNS = test system: SNB-19 CNS
# SNB-75 CNS = test system: SNB-75 CNS
# SR leukemia = test system: SR leukemia
# SW-620 colon = test system: SW-620 colon
# T-47D breast = test system: T-47D breast
# TK-10 renal = test system: TK-10 renal
# U251 CNS = test system: U251 CNS
# UACC-257 melanoma = test system: UACC-257 melanoma
# UACC-62 melanoma = test system: UACC-62 melanoma
# UO-31 renal = test system: UO-31 renal
smiles,measurement,setting,value
COc1cc([C@@H]2c3cc4c(cc3[C@@H](Nc3ccc(N=Cc5ccc(C(=O)O[C@@H](C(=O)O[C@H]6C[C@@]7(O)[C@@H](OC(=O)c8ccccc8)[C@@H]8[C@]9(OC(C)=O)CO[C@@H]9C[C@H](O)[C@@]8(C)C(=O)[C@H](OC(C)=O)C(=C6C)C7(C)C)[C@@H](NC(=O)c6ccccc6)c6ccccc6)cc5)cc3)[C@H]3COC(=O)[C@H]23)OCO4)cc(OC)c1O,TGI,786-0 renal,9.53 µM
same,TGI,A498 renal,4.48 µM
same,TGI,A549 NSCLC,> 50 µM
same,TGI,ACHN renal,10.5 µM
same,TGI,BT-549 breast,> 50 µM
same,TGI,CAKI-1 renal,14.4 µM
same,TGI,CCRF-CEM leukemia,11 µM
same,TGI,COLO 205 colon,> 50 µM
same,TGI,DU-145 prostate,17.2 µM
same,TGI,EKVX NSCLC,> 50 µM
same,TGI,HCC-2998 colon,> 50 µM
same,TGI,HCT-116 colon,> 50 µM
same,TGI,HCT-15 colon,> 50 µM
same,TGI,HL-60(TB) leukemia,9.73 µM
same,TGI,HOP-62 NSCLC,> 40.2 µM
same,TGI,HOP-92 NSCLC,> 50 µM
same,TGI,HS 578T breast,> 50 µM
same,TGI,HT29 colon,> 50 µM
same,TGI,IGROV1 ovarian,> 50 µM
same,TGI,K-562 leukemia,> 22.5 µM
same,TGI,KM12 colon,> 50 µM
same,TGI,LOX IMVI melanoma,> 50 µM
same,TGI,M14 melanoma,> 50 µM
same,TGI,MALME-3M melanoma,> 50 µM
same,TGI,MCF7 breast,> 50 µM
same,TGI,MDA-MB-231 breast,> 50 µM
same,TGI,MDA-MB-435,> 50 µM
same,TGI,MDA-N,> 50 µM
same,TGI,MOLT-4 leukemia,10.5 µM
same,TGI,NCI-H226 lung,29.3 µM
same,TGI,NCI-H23 lung,> 38.9 µM
same,TGI,NCI-H460 lung,15.9 µM
same,TGI,NCI-H522 lung,> 50 µM
same,TGI,NCI/ADR-RES ovarian,> 50 µM
same,TGI,OVCAR-3 ovarian,> 50 µM
same,TGI,OVCAR-4 ovarian,> 50 µM
same,TGI,OVCAR-5 ovarian,> 39.1 µM
same,TGI,OVCAR-8 ovarian,> 50 µM
same,TGI,PC-3 prostate,> 50 µM
same,TGI,RPMI-8226 leukemia,28.2 µM
same,TGI,RXF 393 renal,> 50 µM
same,TGI,SF-268 CNS,> 45.6 µM
same,TGI,SF-295 CNS,> 27.7 µM
same,TGI,SF-539 CNS,> 47.3 µM
same,TGI,SK-MEL-2 melanoma,> 50 µM
same,TGI,SK-MEL-28 melanoma,> 50 µM
same,TGI,SK-MEL-5 melanoma,> 42.9 µM
same,TGI,SK-OV-3 ovarian,> 35.8 µM
same,TGI,SN12C renal,17.2 µM
same,TGI,SNB-19 CNS,> 50 µM
same,TGI,SNB-75 CNS,37.2 µM
same,TGI,SR leukemia,0.35 µM
same,TGI,SW-620 colon,> 50 µM
same,TGI,T-47D breast,> 50 µM
same,TGI,TK-10 renal,> 50 µM
same,TGI,U251 CNS,35.4 µM
same,TGI,UACC-257 melanoma,> 50 µM
same,TGI,UACC-62 melanoma,> 50 µM
O=C(/C=C/NC(=O)OCc1ccccc1)OCc1ccccc1,TGI,786-0 renal,> 100 µM
same,TGI,A498 renal,> 100 µM
same,TGI,A549 NSCLC,> 100 µM
same,TGI,ACHN renal,> 100 µM
same,TGI,BT-549 breast,> 100 µM
same,TGI,CAKI-1 renal,> 100 µM
same,TGI,CCRF-CEM leukemia,> 100 µM
same,TGI,COLO 205 colon,> 100 µM
same,TGI,DU-145 prostate,> 100 µM
same,TGI,EKVX NSCLC,> 100 µM
same,TGI,HCC-2998 colon,> 100 µM
same,TGI,HCT-116 colon,> 100 µM
same,TGI,HCT-15 colon,> 100 µM
same,TGI,HL-60(TB) leukemia,> 100 µM
same,TGI,HOP-62 NSCLC,> 100 µM
same,TGI,HOP-92 NSCLC,> 100 µM
same,TGI,HS 578T breast,> 100 µM
same,TGI,HT29 colon,> 100 µM
same,TGI,IGROV1 ovarian,> 100 µM
same,TGI,K-562 leukemia,> 100 µM
same,TGI,KM12 colon,> 100 µM
same,TGI,LOX IMVI melanoma,> 100 µM
same,TGI,M14 melanoma,> 100 µM
same,TGI,MALME-3M melanoma,> 100 µM
same,TGI,MCF7 breast,> 100 µM
same,TGI,MDA-MB-231 breast,> 100 µM
same,TGI,MDA-MB-435,> 100 µM
same,TGI,MDA-N,> 100 µM
same,TGI,MOLT-4 leukemia,> 100 µM
same,TGI,NCI-H226 lung,> 100 µM
same,TGI,NCI-H23 lung,> 100 µM
same,TGI,NCI-H460 lung,> 100 µM
same,TGI,NCI-H522 lung,> 100 µM
same,TGI,NCI/ADR-RES ovarian,> 100 µM
same,TGI,OVCAR-3 ovarian,> 100 µM
same,TGI,OVCAR-4 ovarian,> 100 µM
same,TGI,OVCAR-5 ovarian,> 100 µM
same,TGI,OVCAR-8 ovarian,> 100 µM
same,TGI,PC-3 prostate,> 100 µM
same,TGI,RPMI-8226 leukemia,> 100 µM
same,TGI,RXF 393 renal,> 100 µM
same,TGI,SF-268 CNS,> 100 µM
same,TGI,SF-295 CNS,> 100 µM
same,TGI,SF-539 CNS,> 100 µM
same,TGI,SK-MEL-2 melanoma,> 100 µM
same,TGI,SK-MEL-28 melanoma,> 100 µM
same,TGI,SK-MEL-5 melanoma,> 100 µM
same,TGI,SK-OV-3 ovarian,> 100 µM
same,TGI,SN12C renal,> 100 µM
same,TGI,SNB-19 CNS,> 100 µM
same,TGI,SNB-75 CNS,> 100 µM
same,TGI,SR leukemia,> 100 µM
same,TGI,SW-620 colon,> 100 µM
same,TGI,T-47D breast,> 100 µM
same,TGI,TK-10 renal,> 100 µM
same,TGI,U251 CNS,> 100 µM
same,TGI,UACC-257 melanoma,> 100 µM
same,TGI,UACC-62 melanoma,> 100 µM
same,TGI,UO-31 renal,> 100 µM
Cc1ccc(O)c(C(c2ccc(C(c3cc(C)ccc3O)c3cc(C)ccc3O)cc2)c2cc(C)ccc2O)c1,TGI,786-0 renal,3.11 µM
same,TGI,A498 renal,2.91 µM
same,TGI,A549 NSCLC,3.23 µM
same,TGI,ACHN renal,3.17 µM
same,TGI,BT-549 breast,3.49 µM
same,TGI,CAKI-1 renal,2.92 µM
same,TGI,CCRF-CEM leukemia,5.63 µM
same,TGI,COLO 205 colon,2.75 µM
same,TGI,DU-145 prostate,3.21 µM
same,TGI,EKVX NSCLC,3.57 µM
same,TGI,HCC-2998 colon,3.31 µM
same,TGI,HCT-116 colon,3.04 µM
same,TGI,HCT-15 colon,3.2 µM
same,TGI,HL-60(TB) leukemia,5.47 µM
same,TGI,HOP-62 NSCLC,4.36 µM
same,TGI,HOP-92 NSCLC,3.81 µM
same,TGI,HS 578T breast,4.7 µM
same,TGI,HT29 colon,3.57 µM
same,TGI,IGROV1 ovarian,3.16 µM
same,TGI,K-562 leukemia,3.56 µM
same,TGI,KM12 colon,3.09 µM
same,TGI,LOX IMVI melanoma,3.38 µM
same,TGI,M14 melanoma,3.36 µM
same,TGI,MALME-3M melanoma,3.45 µM
same,TGI,MCF7 breast,4.36 µM
same,TGI,MDA-MB-231 breast,2.67 µM
same,TGI,MDA-MB-435,3.29 µM
same,TGI,MDA-N,2.87 µM
same,TGI,MOLT-4 leukemia,> 100 µM
same,TGI,NCI-H226 lung,3.61 µM
same,TGI,NCI-H23 lung,3.25 µM
same,TGI,NCI-H522 lung,3.62 µM
same,TGI,NCI/ADR-RES ovarian,3.85 µM
same,TGI,OVCAR-3 ovarian,3.86 µM
same,TGI,OVCAR-4 ovarian,3.22 µM
same,TGI,OVCAR-5 ovarian,3.28 µM
same,TGI,OVCAR-8 ovarian,3.41 µM
same,TGI,PC-3 prostate,3 µM
same,TGI,RPMI-8226 leukemia,3.4 µM
same,TGI,RXF 393 renal,3.4 µM
same,TGI,SF-268 CNS,3.31 µM
same,TGI,SF-295 CNS,4.01 µM
same,TGI,SF-539 CNS,3.29 µM
same,TGI,SK-MEL-2 melanoma,3.89 µM
same,TGI,SK-MEL-28 melanoma,3.5 µM
same,TGI,SK-MEL-5 melanoma,3.22 µM
same,TGI,SK-OV-3 ovarian,3.27 µM
same,TGI,SN12C renal,3.1 µM
same,TGI,SNB-19 CNS,2.97 µM
same,TGI,SNB-75 CNS,3.49 µM
same,TGI,SR leukemia,6.33 µM
same,TGI,SW-620 colon,3.48 µM
same,TGI,T-47D breast,3.23 µM
same,TGI,TK-10 renal,2.93 µM
same,TGI,U251 CNS,3.82 µM
same,TGI,UACC-257 melanoma,3.33 µM
same,TGI,UACC-62 melanoma,3.15 µM
same,TGI,UO-31 renal,3.25 µM
